Reference: ChEMBL document CHEMBL1909046, “DrugMatrix in vitro pharmacology data”

Key:
[1] = target: T1, Alpha-1A adrenergic receptor (Rattus norvegicus, UniProt P43140); experiment: DRUGMATRIX: Alpha-1A adrenergic receptor radioligand binding (ligand: prazosin); assay type: cell membranes, Wistar, Submaxillary gland, Membrane; conditions: Not Active = under 50% inhibition at 10 µM
T1 sequence (P43140 whole entry): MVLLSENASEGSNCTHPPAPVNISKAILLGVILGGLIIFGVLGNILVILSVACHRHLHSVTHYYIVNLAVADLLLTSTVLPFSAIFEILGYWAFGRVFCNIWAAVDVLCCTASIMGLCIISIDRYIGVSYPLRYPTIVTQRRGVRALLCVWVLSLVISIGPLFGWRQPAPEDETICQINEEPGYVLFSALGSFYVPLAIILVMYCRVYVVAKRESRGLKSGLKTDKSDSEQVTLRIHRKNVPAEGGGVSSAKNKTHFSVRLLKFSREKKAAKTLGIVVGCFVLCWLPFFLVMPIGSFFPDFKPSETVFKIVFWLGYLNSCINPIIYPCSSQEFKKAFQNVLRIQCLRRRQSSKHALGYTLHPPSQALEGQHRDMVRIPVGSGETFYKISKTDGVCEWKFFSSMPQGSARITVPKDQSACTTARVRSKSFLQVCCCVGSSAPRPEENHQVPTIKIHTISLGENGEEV

[2] = DRUGMATRIX: GABAA, Muscimol, Central radioligand binding (ligand: [3H] Muscimol); assay type: cell membranes, Rattus norvegicus, Wistar, Brain, Membrane; conditions: Not Active = under 50% inhibition at 10 µM
[3] = DRUGMATRIX: GABAA, Flunitrazepam, Central radioligand binding (ligand: [3H] Flunitrazepam); assay type: cell membranes, Rattus norvegicus, Wistar, Brain, Membrane; conditions: Not Active = under 50% inhibition at 10 µM
Glycine receptor = Glycine receptor (Rattus norvegicus, UniProt P22771+P24524+P07727+P20781); assay type: cell membranes, Wistar, Spinal cord, Membrane; further: in other assays of this panel Not Active means under 50% inhibition at 10 µM
Histamine H2 receptor = Histamine H2 receptor (Homo sapiens, UniProt P25021); assay type: cell membranes, CHO-K1, Membrane; conditions: cho-k1; further: in other assays of this panel Not Active means under 50% inhibition at 10 µM
Histamine H2 receptor, sequence (P25021 whole entry): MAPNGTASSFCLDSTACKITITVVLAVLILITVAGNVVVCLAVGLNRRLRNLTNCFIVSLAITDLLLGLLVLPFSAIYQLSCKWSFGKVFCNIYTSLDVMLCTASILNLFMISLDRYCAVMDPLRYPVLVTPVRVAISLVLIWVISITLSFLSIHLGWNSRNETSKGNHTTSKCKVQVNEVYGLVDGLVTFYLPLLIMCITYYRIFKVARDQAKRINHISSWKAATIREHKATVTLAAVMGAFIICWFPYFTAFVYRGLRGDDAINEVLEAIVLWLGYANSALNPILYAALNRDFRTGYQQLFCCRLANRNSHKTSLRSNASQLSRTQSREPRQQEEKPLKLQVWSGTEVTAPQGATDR

[4] = target: T2, Muscarinic acetylcholine receptor M2 (Homo sapiens, UniProt P08172); assay type: cell membranes, CHO-K1, Membrane; conditions: cho-k1; further: in other assays of this panel Not Active means under 50% inhibition at 10 µM
T2 sequence (P08172 whole entry): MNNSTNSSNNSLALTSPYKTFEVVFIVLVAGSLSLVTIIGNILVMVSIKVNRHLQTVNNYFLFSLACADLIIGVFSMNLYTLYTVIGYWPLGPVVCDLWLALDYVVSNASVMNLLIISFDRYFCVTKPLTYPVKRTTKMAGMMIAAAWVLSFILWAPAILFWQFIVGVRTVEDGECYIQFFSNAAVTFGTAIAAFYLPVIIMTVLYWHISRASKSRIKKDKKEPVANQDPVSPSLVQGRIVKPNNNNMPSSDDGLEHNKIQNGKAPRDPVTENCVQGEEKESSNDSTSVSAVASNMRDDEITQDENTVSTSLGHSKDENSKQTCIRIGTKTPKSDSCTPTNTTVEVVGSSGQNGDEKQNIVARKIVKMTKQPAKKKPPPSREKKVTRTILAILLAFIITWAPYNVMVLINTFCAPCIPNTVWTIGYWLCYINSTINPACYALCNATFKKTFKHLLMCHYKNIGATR

Compound	IC50 [1]	IC50 [2]	Ki [2]	IC50 ([3]; read-out: IC50) [µM]	Ki ([3]; read-out: Ki) [µM]	IC50 (Glycine receptor)	IC50 (Histamine H2 receptor)	IC50 [4]	IC50 [3]	Ki [3]	IC50 ([1]; read-out: IC50) [µM]	Ki ([1]; read-out: Ki) [µM]	Ki [1]	Ki (Glycine receptor)	Ki (Histamine H2 receptor)	Ki [4]
O=c1cc(N2CCOCC2)oc2c(-c3ccccc3)cccc12 [LY-294002]	Not Active	Not Active	Not Active	21.4	17.4	Not Active	Not Active	Not Active								
COc1ccc2[nH]cc(CCNC(C)=O)c2c1 [MELATONIN]	Not Active	Not Active	Not Active			Not Active	Not Active	Not Active	Not Active	Not Active						
NC(=O)C[S+]([O-])C(c1ccccc1)c1ccccc1 (configuration not stated) [MODAFINIL]	Not Active	Not Active	Not Active			Not Active	Not Active	Not Active	Not Active	Not Active						
CCN(CC)CCOCCC1=CCC2CC1C2(C)C (configuration not stated) [MYRTECAINE]	Not Active	Not Active	Not Active			Not Active	Not Active	Not Active	Not Active	Not Active						
O=C(O)c1cccnc1Nc1cccc(C(F)(F)F)c1 [NIFLUMIC ACID]	Not Active	Not Active	Not Active			Not Active	Not Active	Not Active	Not Active	Not Active						
O=C(N/N=C/c1ccc([N+](=O)[O-])o1)c1cc([N+](=O)[O-])cc([N+](=O)[O-])c1O [NIFURSOL]	Not Active	Not Active	Not Active			Not Active	Not Active	Not Active	Not Active	Not Active						
COC(=O)Nc1nc2ccc(C(=O)c3cccs3)cc2[nH]1 [NOCODAZOLE]	Not Active	Not Active	Not Active			Not Active	Not Active	Not Active	Not Active	Not Active						
C#CC1(O)CC[C@H]2[C@@H]3CCC4=CC(=O)CC[C@@H]4[C@H]3CC[C@@]21CC (some centres not stated) [NORGESTREL]	Not Active	Not Active	Not Active	2.36	1.92	Not Active	Not Active	Not Active								
COC(=O)Nc1nc2ccc([S+]([O-])c3ccccc3)cc2[nH]1 (configuration not stated) [OXFENDAZOLE]	Not Active	Not Active	Not Active			Not Active	Not Active	Not Active	Not Active	Not Active						
CC(=O)O[C@H]1C(=O)[C@@]2(C)[C@H]([C@H](OC(=O)c3ccccc3)[C@]3(O)C[C@H](OC(=O)[C@H](O)[C@@H](NC(=O)c4ccccc4)c4ccccc4)C(C)=C1C3(C)C)[C@]1(OC(C)=O)CO[C@@H]1C[C@@H]2O [PACLITAXEL]	Not Active	Not Active	Not Active			Not Active	Not Active	Not Active	Not Active	Not Active						
C[n+]1ccc(-c2cc[n+](C)cc2)cc1.[Cl-].[Cl-] [PARAQUAT DICHLORIDE]	Not Active	Not Active	Not Active			Not Active	Not Active	Not Active	Not Active	Not Active						
CC(C)NCC(O)COc1cccc2[nH]ccc12 (configuration not stated) [PINDOLOL]	Not Active	Not Active	Not Active			Not Active	Not Active	Not Active	Not Active	Not Active						
CCn1cc(C(=O)O)c(=O)c2cnc(N3CCCC3)nc21 [PIROMIDIC ACID]	Not Active	Not Active	Not Active			Not Active	Not Active	Not Active	Not Active	Not Active						
C[n+]1ccccc1/C=N/O.[Cl-] [PRALIDOXIME CHLORIDE]	Not Active	Not Active	Not Active			Not Active	Not Active	Not Active	Not Active	Not Active						
C[C@]12C=CC(=O)C=C1CC[C@@H]1[C@@H]2[C@@H](O)C[C@@]2(C)[C@H]1CC[C@]2(O)C(=O)CO [PREDNISOLONE]	Not Active	Not Active	Not Active			Not Active	Not Active	Not Active	Not Active	Not Active						
CC(=O)[C@H]1[C@H](C#N)C[C@H]2[C@@H]3CC=C4C[C@@H](O)CC[C@]4(C)[C@H]3CC[C@@]21C [PREGNENOLONE CARBONITRILE]	Not Active	Not Active	Not Active			Not Active	Not Active	Not Active	Not Active	Not Active						
CCCN(CCC)S(=O)(=O)c1ccc(C(=O)O)cc1 [PROBENECID]	Not Active	Not Active	Not Active			Not Active	Not Active	Not Active	Not Active	Not Active						
CCCNCC(O)COc1ccccc1C(=O)CCc1ccccc1 (configuration not stated) [PROPAFENONE]		Not Active	Not Active			Not Active	Not Active	Not Active	Not Active	Not Active	6.15	2.49				
CCCOc1ccc(C(=O)OCCN(CC)CC)cc1N [PROPARACAINE]	Not Active	Not Active	Not Active			Not Active	Not Active	Not Active	Not Active	Not Active						
CC(C)c1cccc(C(C)C)c1O [PROPOFOL]	Not Active	Not Active	Not Active			Not Active	Not Active	Not Active	Not Active	Not Active						
C[C@@H]1O[C@@H](O[C@@H]2C=C3CC[C@@H]4[C@H](CC[C@]5(C)[C@@H](c6ccc(=O)oc6)CC[C@]45O)[C@@]3(C)CC2)[C@H](O)[C@H](O)[C@H]1O [PROSCILLARIDIN]	Not Active	Not Active	Not Active			Not Active	Not Active	Not Active	Not Active	Not Active						
Oc1cccc(O)c1O [PYROGALLOL]	Not Active	Not Active	Not Active			Not Active	Not Active	Not Active	Not Active	Not Active						
AURANOFIN	Not Active	Not Active	Not Active			Not Active	Not Active	Not Active	Not Active	Not Active			Not Active	Not Active	Not Active	Not Active
GADOPENTETATE DIMEGLUMINE	Not Active	Not Active	Not Active			Not Active	Not Active	Not Active	Not Active	Not Active			Not Active	Not Active	Not Active	Not Active
GENTAMICIN	Not Active	Not Active	Not Active			Not Active	Not Active	Not Active	Not Active	Not Active			Not Active	Not Active	Not Active	Not Active
GRAMICIDIN	Not Active	Not Active	Not Active			Not Active	Not Active	Not Active	Not Active	Not Active			Not Active	Not Active	Not Active	Not Active
NYSTATIN	Not Active	Not Active	Not Active			Not Active	Not Active	Not Active	Not Active	Not Active			Not Active	Not Active	Not Active	Not Active
